Experimental data taken from patent EP1566447A1, “Glimepiride- and insulin-induced glycosylphosphatidylinositol-specific phospholipase C regulation” (priority 2004, dated 2005).

Legend:
rat adipocytes = assay: isoproterenol-induced lipolysis measured as release of NBD-FA; assay type: cell-based; details: 50 µM; Fig. 9 Panels A, B
Method: Electroporation was performed as described in "Müller, G. et al., (2000) Mol. Cell. Biol. 20: 4708-4723". Lipolysis was determined as release of glycerol or fluorescent NBD-FA from prelabeled and isoproterenol-stimulated adipocytes as described in "Müller, G. et al., (2003) Biochimie 85: 1245-1256". Gce1 was detected by photolabeling of solubilized plasma membranes or hc/IcDIGs (10-50 µg protein) with 8-N3-[^32P]cAMP and subsequent phosphorimaging as described in "Müller, G. et al., (1994) Biochemistry 33: 12149-12159". 5'-Nuc, aP and AChE activities were measured according to "Eliakim, R. et al., (1990) Biochim. Biophys. Acta […]". Protein was determined using the BCA protein determination kit from Pierce (Rockford, IL) and BSA as calibration standard. SDS-PAGE was performed using precast gels (Novex, San Diego, CA; 10 % Bis-Tris resolving gel, morpholinopropanesulfonic acid-SDS running buffer). Lumiimages were evaluated on a Lumilmager using Lumilmager software (Roche Diagnostics). Phosphor- and fluorescence images were processed and quantified using the Storm 860 Phosphorlmager system (Molecular Dynamics, Gelsenkirchen, Germany). Figures were constructed using the Adobe Photoshop software (Adobe Systems, Mountain View, CA). […]

[1] = test system: patients with type 2 diabetes; details: cited from earlier work
[2] = test system: GPI-PLC of hcDIGs from rat adipocytes; assay: adipocyte GPI-PLC assay (cleavage of AChE, TX-114 partitioning); assay type: biochemical; details: 1 mM; hcDIGs from rat adipocytes
Method: Biophys. […] Each reaction mixture was subjected to TX-114 partitioning (see below).
After incubation for 1 h on ice, the mixture was layered onto a cushion of 0.4 ml of 0.25 M sucrose and 25 mM Tris/HCl (pH 7.4) on ice.
Cleavage rate was calculated from the amount of hydrophilic AChE and aP activity recovered with the TX-114-depleted phase upon TX-114 partitioning.

Row | SMILES | effect on the glimepiride-induced reduction of NBD-FA release (rat adipocytes) | activation of GPI-PLC (GPI-PLC; direct incubation of hcDIGs from untreated adipocytes, Fig. 4 Panel A) | stimulation of GPI-PLC activity (GPI-PLC; hcDIGs prepared from pretreated adipocytes, Fig. 4 Panel C, 20 µM) [fold] | hypoglycaemia occurred in patients ([1]; monotherapy, treated for ≤1 year) [%] | effective dosage range ([1]; patients with type 2 diabetes) [mg/day] | inhibition % at 1 mM [2] [%]
1 | CCC1=C(C)CN(C(=O)NCCc2ccc(S(=O)(=O)NC(=O)N[C@H]3CC[C@H](C)CC3)cc2)C1=O [Glimepiride, glimepiride] | completely abrogated | up to 4 fold | 3 | 10 to 20 | 0.5 to 8 | –
2 | CCCCCCCCCCCCP(=O)(OC)O[C@@H]1[C@H](O)[C@H](O)[C@@H](O)[C@H](O)[C@H]1O (stereo partly drawn) [GPI-2349, myo-inositol-1-O-dodecylphosphonic acid methylester] | – | – | – | – | – | 27 ± 6
